Results as given in patent publication US20110086759A1, “CHEMICAL COMPOUNDS” (SYNGENTA CROP PROTECTION, INC., priority 2007, published 2011).

How the values were obtained:
Format in all cases: in vivo
[1] = tested on: Alopecurus myosuroides (ALOMY); assay: Pre-emergence biological efficacy, glasshouse pot test; settings: 312 h, pre-emergence, 1,000 g/ha, evaluated after 13 days (100=total damage; 0=no damage), read-out: Percentage damage ALOMY
Method in brief: (§1)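 Seeds sown in standard soil in pots, held one day in glasshouse (24/16 °C day/night, 14 h light, 65% humidity), then sprayed with aqueous solution from acetone/water (50:50) formulation with 0.5% Tween 20 at 1000 or 250 g/ha. Damage scored after 13 days (0 = none, 100 = total).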

[2] = tested on: Amaranthus retoflexus (AMARE); assay: as above; settings: Amaranthus retroflexus, 312 h; pre-emergence, 1,000 g/ha, evaluated after 13 days (100=total damage; 0=no damage); read-out: Percentage damage AMARE
Method in brief: as §1

[3] = tested on: Echinochloa crus-galli (ECHCG); assay: as above; settings: 312 h, pre-emergence, 1,000 g/ha, evaluated after 13 days (100=total damage; 0=no damage), read-out: Percentage damage ECHCG
Method in brief: as §1

[4] = tested on: Ipomea hederaceae (IPOHE); assay: as above; settings: Ipomoea hederacea, 312 h; pre-emergence, 1,000 g/ha, evaluated after 13 days (100=total damage; 0=no damage); read-out: Percentage damage IPOHE
Method in brief: as §1

Setaria faberi (SETFA) [5] = assay: as above; settings: 312 h, pre-emergence, 1,000 g/ha, evaluated after 13 days (100=total damage; 0=no damage), read-out: Percentage damage SETFA
Method in brief: as §1

Solanum nigrum (SOLNI) [6] = assay: as above; settings: 312 h, pre-emergence, 1,000 g/ha, evaluated after 13 days (100=total damage; 0=no damage), read-out: Percentage damage SOLNI
Method in brief: as §1

[7] = tested on: Alopecurus myosuroides (ALOMY); assay: Post-emergence biological efficacy, glasshouse pot test; settings: 312 h, post-emergence, 1,000 g/ha, evaluated after 13 days (100=total damage; 0=no damage), read-out: Percentage damage caused to weed species, ALOMY
Method in brief: (§2)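 Plants were sown in standard soil and grown 8 days in a glasshouse (24/16° C. day/night, 14 hours light, 65% humidity), then sprayed post-emergence at 1000 or 250 g/ha from acetone/water (50:50) with 0.5% Tween 20. Damage was scored visually after 13 days (0 = none, 100 = total).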

[8] = tested on: Amaranthus retoflexus (AMARE); assay: as above; settings: Amaranthus retroflexus, 312 h; post-emergence, 1,000 g/ha, evaluated after 13 days (100=total damage; 0=no damage); read-out: Percentage damage caused to weed species, AMARE
Method in brief: as §2

[9] = tested on: Echinochloa crus-galli (ECHCG); assay: as above; settings: 312 h, post-emergence, 1,000 g/ha, evaluated after 13 days (100=total damage; 0=no damage), read-out: Percentage damage caused to weed species, ECHCG
Method in brief: as §2

[10] = tested on: Ipomea hederaceae (IPOHE); assay: as above; settings: Ipomoea hederacea, 312 h; post-emergence, 1,000 g/ha, evaluated after 13 days (100=total damage; 0=no damage); read-out: Percentage damage caused to weed species, IPOHE
Method in brief: as §2

Setaria faberi (SETFA) [11] = assay: as above; settings: 312 h, post-emergence, 1,000 g/ha, evaluated after 13 days (100=total damage; 0=no damage), read-out: Percentage damage caused to weed species, SETFA
Method in brief: as §2

Solanum nigrum (SOLNI) [12] = assay: as above; settings: 312 h, post-emergence, 1,000 g/ha, evaluated after 13 days (100=total damage; 0=no damage), read-out: Percentage damage caused to weed species, SOLNI
Method in brief: as §2

Row | Structure (SMILES) | pest or weed control at 1000 g/ha [1] | pest or weed control at 1000 g/ha [2] | pest or weed control at 1000 g/ha [3] | pest or weed control at 1000 g/ha [4] | pest or weed control at 1000 g/ha (Setaria faberi (SETFA) [5]) | pest or weed control at 1000 g/ha (Solanum nigrum (SOLNI) [6]) | pest or weed control at 1000 g/ha [7] | pest or weed control at 1000 g/ha [8] | pest or weed control at 1000 g/ha [9] | pest or weed control at 1000 g/ha [10] | pest or weed control at 1000 g/ha (Setaria faberi (SETFA) [11]) | pest or weed control at 1000 g/ha (Solanum nigrum (SOLNI) [12])
1 | COC(=O)c1nc(C2CC2)nc(NCc2ccc(C(F)(F)F)cc2)c1Cl [Compound 4-77, 5-Chloro-2-cyclopropyl-6-methoxycarbonyl-4-(4-trifluoromethyl-phenylmethyl-amino)pyrimidine] | 0% | 50% | 30% | 40% | 0% | 40% | 20% | 100% | 90% | 100% | 90% | 100%
2 | COC(=O)c1nc(C2CC2)nc(NCc2ccccc2OC)c1Cl [Compound 4-78, 5-Chloro-2-cyclopropyl-6-methoxycarbonyl-4-(2-methoxyphenyl-methylamino)-pyrimidine] | 20% | 90% | 60% | 100% | 40% | 90% | 30% | 100% | 70% | 100% | 80% | 90%
3 | COC(=O)c1nc(C2CC2)nc(NCc2ccc(OC)cc2)c1Cl [Compound 4-80, 5-Chloro-2-cyclopropyl-6-methoxycarbonyl-4-(4-methoxyphenyl-methylamino)-pyrimidine] | 40% | 90% | 50% | 90% | 60% | 90% | 30% | 100% | 60% | 100% | 90% | 100%
4 | CCCCOc1ccc(CNc2nc(C3CC3)nc(C(=O)OC)c2Cl)cc1 [Compound 4-82, 4-(4-^nButoxyphenyl-methylamino)-5-chloro-2-cyclo-propyl-6-methoxy-carbonylpyrimidine] | 40% | 90% | 60% | 100% | 80% | 90% | 30% | 100% | 60% | 100% | 80% | 100%
5 | COC(=O)c1nc(C2CC2)nc(NCc2ccc(OC(F)(F)F)cc2)c1Cl [Compound 4-83, 5-Chloro-2-cyclopropyl-6-methoxycarbonyl-4-(4-trifluoromethoxy-phenylmethyl-amino)pyrimidine] | 0% | 60% | 0% | 50% | 10% | 40% | 20% | 100% | 60% | 100% | 90% | 100%
